≈ marks a conversion by molar mass, not a printed value.

In one test the test system is Escherichia coli. Kind of test: Antibacterial activity against Escherichia coli assessed as zone of inhibition at 500 to 1000 ug per disc. The format is functional. Particulars: dose 500-1000 µg.
With `O=c1[nH]c2ccc(Cl)cc2c2c1cnn2Cc1ccccc1`, the “diameter of the inhibition zone (DIZ)” value is on record as 7 mm.
Still for that read-out and setting: to `O=c1[nH]c2ccc(F)cc2c2c1cnn2Cc1ccccc1` belongs 7 mm; to `Cn1c(=O)c(C(=O)/C=C/c2ccco2)c(O)c2ccccc21`, 7 mm; to `CCn1c(=O)c(C(=O)/C=C/c2cccs2)c(O)c2ccccc21`, 7 mm.
On the same count and under the same terms, the value for `O=c1[nH]c2ccccc2c2c1cnn2Cc1ccccc1` was 7 mm.
On to `CCn1c(=O)c(C(=O)/C=C/c2ccsc2)c(O)c2ccccc21`, for which the “diameter of the inhibition zone (DIZ)” value stood at 7 mm.
On the same count and under the same terms, the value for `COc1ccc2[nH]c(=O)c3cnn(Cc4ccccc4)c3c2c1` was 7 mm; that for `Cc1ccc2[nH]c(=O)c3cnn(Cc4ccccc4)c3c2c1` was 7 mm.

The next test relates to Escherichia coli. The test can be described thus: Antibacterial activity against Escherichia coli KC-14 infected in po dosed mouse assessed as bacterial growth inhibition. Format: functional. Particulars: Escherichia coli, KC-14, po, read-out: ED50.
For the compound `CCOC(=O)c1c2n(c3cc(N4CCN(C(C)=O)CC4)c(F)cc3c1=O)C(C)S2` (centres undefined), the ED50 came out at 0.89 mg/kg.

The same test, now with this note: Escherichia coli, KC-14, read-out: ED50.
For the compound `CCOC(=O)c1c2n(c3cc(N4CCNCC4)c(F)cc3c1=O)C(C)S2` (centres undefined), the ED50 came out at 0.78 mg/kg.

The next test concerns Escherichia coli. Kind of test: Antibacterial activity against Escherichia coli NIHJ JC-2 assessed as bacterial growth inhibition. The format is functional.
Settings: not given
`NCC1CCN(c2c(F)c3c(c(=O)c(C(=O)O)cn3C3CC3)c3[nH]nnc23)C1` (centres undefined): the MIC worked out at 0.025 µg/mL (≈ 0.0647 µM).
Regarding `NC1CCN(c2c(Cl)c3c(c(=O)c(C(=O)O)cn3C3CC3)c3[nH]nnc23)C1` (centres undefined), the minimal inhibitory concentration (MIC) was 0.025 µg/mL (≈ 0.0643 µM).
Same read-out and setting: to `NC1CCN(c2c(F)c3c(c(=O)c(C(=O)O)cn3C3CC3)c3[nH]nnc23)C1` (centres undefined) belongs 0.025 µg/mL (≈ 0.0671 µM).
The same measure, in the same setting: to `CN1CCN(c2c(Cl)c3c(c(=O)c(C(=O)O)cn3C3CC3)c3[nH]nnc23)CC1` belongs 0.025 µg/mL (≈ 0.0621 µM); to `O=C(O)c1cn(C2CC2)c2c(F)c(N3CCNCC3)c3nn[nH]c3c2c1=O`, 0.025 µg/mL (≈ 0.0671 µM).
The same measure, in the same setting: the value for `CN1CCN(c2cc3c(c(=O)c(C(=O)O)cn3C3CC3)c3[nH]nnc23)CC1` was 0.025 µg/mL (≈ 0.0679 µM).
Take `NC1CCN(c2c(Cl)c3c(c(=O)c(C(=O)O)cn3C3CC3)c3[nH]cnc23)C1` (centres undefined): the MIC is 0.025 µg/mL (≈ 0.0645 µM).
Consider `CN1CCN(c2c(F)c3c(c(=O)c(C(=O)O)cn3C3CC3)c3[nH]nnc23)CC1`, for which the MIC was 0.025 µg/mL (≈ 0.0647 µM).
Still for that read-out and setting: the value for `C[C@@H]1CN(c2c(F)c(N)c3c(=O)c(C(=O)O)cn(C4CC4)c3c2F)C[C@H](C)N1` [SPARFLOXACIN] was 0.0125 µg/mL (≈ 0.0319 µM).

The test system of another test is Escherichia coli. Kind of test: Antibacterial activity against Escherichia coli NIHJ JC-2 assessed as bacterial growth inhibition measured after 24 hrs by agar dilution method. Format: functional.
Settings: not given
As to `CNC1CN(c2c(F)cc3c(=O)c(C(=O)O)cn(-c4cc(N)c(F)cc4CO)c3c2Cl)C1`, the MIC is 0.008 µg/mL (≈ 0.0172 µM).
`CCNC1CN(c2c(F)cc3c(=O)c(C(=O)O)cn(-c4cc(N)c(F)cc4CO)c3c2Cl)C1`: the MIC came out at 0.008 µg/mL (≈ 0.0167 µM).
Same read-out and setting: to `Nc1cc(-n2cc(C(=O)O)c(=O)c3cc(F)c(N4CC(N)C4)c(Cl)c32)c(CO)cc1F` belongs 0.008 µg/mL (≈ 0.0177 µM).

In another test the test system is Escherichia coli. Kind of test: Antibacterial activity against Escherichia coli NIHJ assessed as bacterial growth inhibition measured after 24 hrs by agar dilution method. Format: functional.
Settings: not given
As for `CNC1CN(c2c(F)cc3c(=O)c(C(=O)O)cn(-c4cc(N)c(F)cc4CO)c3c2Cl)C1`, the MIC worked out at 0.008 µg/mL (≈ 0.0172 µM).
The same measure, in the same setting: the value for `CCNC1CN(c2c(F)cc3c(=O)c(C(=O)O)cn(-c4cc(N)c(F)cc4CO)c3c2Cl)C1` was 0.008 µg/mL (≈ 0.0167 µM); that for `Nc1cc(-n2cc(C(=O)O)c(=O)c3cc(F)c(N4CC(N)C4)c(Cl)c32)c(CO)cc1F` was 0.008 µg/mL (≈ 0.0177 µM).

Another test relates to Escherichia coli. Kind of test: Antibacterial activity against Escherichia coli 2010-05 assessed as bacterial growth inhibition measured after 24 hrs by agar dilution method. Format: functional.
Settings: not given
For `CNC1CN(c2c(F)cc3c(=O)c(C(=O)O)cn(-c4cc(N)c(F)cc4CO)c3c2Cl)C1`, the MIC came to 2 µg/mL (≈ 4.3 µM).
Same read-out and setting: the value for `CCNC1CN(c2c(F)cc3c(=O)c(C(=O)O)cn(-c4cc(N)c(F)cc4CO)c3c2Cl)C1` was 1 µg/mL (≈ 2.09 µM).
Same read-out and setting: the value for `Nc1cc(-n2cc(C(=O)O)c(=O)c3cc(F)c(N4CC(N)C4)c(Cl)c32)c(CO)cc1F` was 1 µg/mL (≈ 2.22 µM).

The subject of the next test is Escherichia coli. Kind of test: Antibacterial activity against Escherichia coli 2010-29 assessed as bacterial growth inhibition measured after 24 hrs by agar dilution method. The format is functional.
Settings: not given
With `CNC1CN(c2c(F)cc3c(=O)c(C(=O)O)cn(-c4cc(N)c(F)cc4CO)c3c2Cl)C1`, the MIC was determined as 2 µg/mL (≈ 4.3 µM).
On the same count and under the same terms, to `CCNC1CN(c2c(F)cc3c(=O)c(C(=O)O)cn(-c4cc(N)c(F)cc4CO)c3c2Cl)C1` belongs 1 µg/mL (≈ 2.09 µM); to `Nc1cc(-n2cc(C(=O)O)c(=O)c3cc(F)c(N4CC(N)C4)c(Cl)c32)c(CO)cc1F`, 1 µg/mL (≈ 2.22 µM).

The next test deals with Escherichia coli. Kind of test: Antibacterial activity against Escherichia coli ATCC 8739 assessed as bacterial growth inhibition incubated for 24 hrs by two-serial dilution method.
Settings: not given
The format is functional.
For `O=C(O)c1cn(C2CC2)c2c(cc(F)c3nc(-c4ccco4)[nH]c32)c1=O`, the minimal inhibitory concentration (MIC) is more than 3 µg/mL.
On the same count and under the same terms, the value for `O=C(O)c1cn(C2CC2)c2c(cc(F)c3nc(-c4ccsc4)[nH]c32)c1=O` was more than 3 µg/mL.
Same read-out and setting: to `O=C(O)c1cn(C2CC2)c2c(cc(F)c3nc(-c4ccccn4)[nH]c32)c1=O` belongs more than 3 µg/mL; to `O=C(O)c1cn(C2CC2)c2c(cc(F)c3nc(-c4cccs4)[nH]c32)c1=O`, more than 3 µg/mL.
Still for that read-out and setting: to `O=C(O)c1cn(C2CC2)c2c(cc(F)c3nc(-c4ccc(F)cc4)[nH]c32)c1=O` belongs more than 3 µg/mL; to `O=C(O)c1cn(C2CC2)c2c(cc(F)c3nc(-c4ccoc4)[nH]c32)c1=O`, more than 3 µg/mL; to `O=C(O)c1cn(C2CC2)c2c(cc(F)c3nc(-c4ccncc4)[nH]c32)c1=O`, more than 3 µg/mL.
On to `O=C(O)c1cn(C2CC2)c2c(cc(F)c3nc(-c4ccccc4)[nH]c32)c1=O`, for which the MIC is more than 3 µg/mL.
On the same count and under the same terms, to `O=C(O)c1cn(C2CC2)c2c(cc(F)c3nc[nH]c32)c1=O` belongs more than 3 µg/mL.
Still for that read-out and setting: to `Cc1ccc(-c2nc3c(F)cc4c(=O)c(C(=O)O)cn(C5CC5)c4c3[nH]2)cc1` belongs more than 3 µg/mL; to `O=C(O)c1cn(C2CC2)c2c(cc(F)c3nc(-c4ccc(Cl)cc4)[nH]c32)c1=O`, more than 3 µg/mL.

Another test relates to Escherichia coli. Kind of test: Antibacterial activity against Escherichia coli assessed as bacterial growth inhibition incubated for 24 hrs by agar streak dilution method. The format is functional.
Settings: not given
In the case of `COc1ccc2nc(N3C(=O)CSC3N3CCN(c4cc5c(cc4F)c(=O)c(C(=O)O)cn5C4CC4)CC3)sc2c1` (centres undefined), the MIC stood at 2 µg/mL (≈ 3.36 µM).
The same measure, in the same setting: the value for `CCOc1ccc2nc(N3C(=O)CSC3N3CCN(c4cc5c(cc4F)c(=O)c(C(=O)O)cn5C4CC4)CC3)sc2c1` (centres undefined) was 2 µg/mL (≈ 3.28 µM).

Values taken from ChEMBL document CHEMBL5244219, “Recent developments of quinolone-based derivatives and their activities against Escherichia coli” (Eur J Med Chem, 2018).
